Key:
LOLRI [1] = assay: Herbicidal pre-emergence action (Table A3); format: in vivo, Lolium rigidum; conditions: application rate 320 g/ha; visual grading after ca. 3 weeks
Summary of the method: (§1)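 Pots: sandy loam. Sowing: one mono- and one dicot weed species together per pot. Seeds covered with soil.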

LOLRI [2] = assay: Herbicidal post-emergence action, section E (Table E6); format: in vivo, Lolium rigidum; conditions: application rate 320 g/ha; assessed visually after ca. 3 weeks
Source text: (§2) 2 to 3 weeks after sowing, the test plants were sprayed in the single-leaf stage.

BRSNW [3] = assay: Post-emergence effects on crop plants (Table F5); format: in vivo, Brassica napus; conditions: application rate 80 g/ha, crop plant BRSNW
Source text: as §2

ECHCG [4] = assay: Herbicidal pre-emergence action (Table A2); format: in vivo, Echinochloa crus-galli; conditions: application rate 320 g/ha; visual grading after ca. 3 weeks
Summary of the method: as §1

SETVI [5] = assay: Herbicidal pre-emergence action, section C (Table C10); format: in vivo, Setaria viridis; conditions: application rate 80 g/ha; visual grading after ca. 3 weeks
ZEAMX [6] = assay: Post-emergence effects on crop plants (Table F1); format: in vivo, Zea mays; conditions: application rate 320 g/ha, crop plant ZEAMX
Source text: as §2

KCHSC = assay: Herbicidal pre-emergence action (Table A10); format: in vivo, Kochia scoparia; conditions: application rate 1280 g/ha; visual grading after ca. 3 weeks
Summary of the method: as §1

ECHCG [7] = assay: Herbicidal post-emergence action (Table B3); format: in vivo, Echinochloa crus-galli; conditions: application rate 320 g/ha; rated visually after about 3 weeks
Summary of the method: (§3)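 Percent herbicidal activity scored visually versus untreated controls, with 100% meaning dead plants. Scoring took place ~3 weeks after post-emergence treatment of one-leaf-stage weeds grown in sandy loam pots in a greenhouse.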

TRZAS = assay: Post-emergence effects on crop plants (Table F2); format: in vivo, Triticum aestivum; conditions: application rate 80 g/ha, crop plant TRZAS
Source text: as §2

VIOTR = assay: Herbicidal pre-emergence action, section C (Table C12); format: in vivo, Viola tricolor; conditions: application rate 320 g/ha; visual grading after ca. 3 weeks
GLXMA [8] = assay: Pre-emergence effects on crop plants (Table D4); format: in vivo, Glycine max; conditions: crop plant; application rate 80 g/ha; visual grading after ca. 3 weeks
Source text: (§4) Seeds of mono- and dicotyledonous weed plants and crop plants were sown, in plastic or organic planting pots, in sandy loam and covered with soil. The compounds according to the invention, formulated in the form of wettable powders (WP) or as emulsifiable concentrates (EC), were applied to the surface of the covering soil as aqueous suspension or emulsion, with the addition of 0.5% of an additive, at an application rate of 600 1 of water/ha (converted).
(§5) Following treatment, the pots were placed in a greenhouse and kept under optimum growth conditions for the test plants.

STEME [9] = assay: Herbicidal post-emergence action (Table B9); format: in vivo, Stellaria media; conditions: application rate 1280 g/ha
Summary of the method: as §3

STEME [10] = assay: Herbicidal pre-emergence action (Table A6); format: in vivo, Stellaria media; conditions: application rate 320 g/ha; visual grading after ca. 3 weeks
Summary of the method: as §1

VERPE [11] = assay: Herbicidal post-emergence action (Table B10); format: in vivo, Veronica persica; conditions: application rate 320 g/ha
Summary of the method: as §3

LOLRI [12] = assay: Herbicidal pre-emergence action, section C (Table C7); format: in vivo, Lolium rigidum; conditions: application rate 320 g/ha; visual grading after ca. 3 weeks
ECHCG [13] = assay: Herbicidal pre-emergence action, section C (Table C6); format: in vivo, Echinochloa crus-galli; conditions: application rate 80 g/ha; visual grading after ca. 3 weeks
MATIN [14] = assay: Herbicidal pre-emergence action (Table A4); format: in vivo, Matricaria inodora; conditions: application rate 320 g/ha; visual grading after ca. 3 weeks
Summary of the method: as §1

ALOMY [15] = assay: Herbicidal pre-emergence action, section C (Table C2); format: in vivo, Alopecurus myosuroides; conditions: application rate 320 g/ha; visual grading after ca. 3 weeks
GLXMA [16] = assay: Post-emergence effects on crop plants (Table F4); format: in vivo, Glycine max; conditions: application rate 80 g/ha, crop plant GLXMA
Source text: as §2

ABUTH [17] = assay: Herbicidal pre-emergence action (Table A1); format: in vivo, Abutilon theophrasti; conditions: application rate 1280 g/ha; visual grading after ca. 3 weeks vs untreated controls (100% = plants have died off, 0% = as control plants)
Summary of the method: as §1

ALOMY [18] = assay: Herbicidal post-emergence action (Table B2); format: in vivo, Alopecurus myosuroides; conditions: application rate 1280 g/ha; rated visually after about 3 weeks
Summary of the method: as §3

ALOMY [19] = assay: Herbicidal pre-emergence action (Table A9); format: in vivo, Alopecurus myosuroides; conditions: application rate 320 g/ha; visual grading after ca. 3 weeks
Summary of the method: as §1

SETVI [20] = assay: Herbicidal post-emergence action, section E (Table E8); format: in vivo, Setaria viridis; conditions: application rate 320 g/ha; assessed visually after ca. 3 weeks
Source text: as §2

POAAN [21] = assay: Herbicidal post-emergence action (Table B7); format: in vivo, Poa annua; conditions: application rate 320 g/ha
Summary of the method: as §3

MATIN [22] = assay: Herbicidal post-emergence action (Table B6); format: in vivo, Matricaria inodora; conditions: application rate 320 g/ha; rated visually after about 3 weeks
Summary of the method: as §3

BRSNW [23] = assay: Pre-emergence effects on crop plants (Table D5); format: in vivo, Brassica napus; conditions: crop plant; application rate 80 g/ha; visual grading after ca. 3 weeks
Source text: as §4, §5

ALOMY [24] = assay: Herbicidal post-emergence action, section E (Table E2); format: in vivo, Alopecurus myosuroides; conditions: application rate 320 g/ha; assessed visually after ca. 3 weeks
Source text: as §2

SETVI [25] = assay: Herbicidal pre-emergence action (Table A5); format: in vivo, Setaria viridis; conditions: application rate 320 g/ha; visual grading after ca. 3 weeks
Summary of the method: as §1

SETVI [26] = assay: Herbicidal post-emergence action (Table B8); format: in vivo, Setaria viridis; conditions: application rate 1280 g/ha
Summary of the method: as §3

ORYZA [27] = assay: Post-emergence effects on crop plants (Table F3); format: in vivo, Oryza sativa; conditions: application rate 80 g/ha, crop plant ORYZA
Source text: as §2

ZEAMX [28] = assay: Pre-emergence effects on crop plants (Table D1); format: in vivo, Zea mays; conditions: crop plant; application rate 80 g/ha; visual grading after ca. 3 weeks
ECHCG [29] = assay: Herbicidal post-emergence action, section E (Table E5); format: in vivo, Echinochloa crus-galli; conditions: application rate 320 g/ha; assessed visually after ca. 3 weeks
Source text: as §2

MATIN [30] = assay: Herbicidal pre-emergence action, section C (Table C8); format: in vivo, Matricaria inodora; conditions: application rate 320 g/ha; visual grading after ca. 3 weeks
ABUTH [31] = assay: Herbicidal post-emergence action (Table B1); format: in vivo, Abutilon theophrasti; conditions: application rate 1280 g/ha; treated at one-leaf stage; rated visually after about 3 weeks vs untreated controls (100% = plants have died, 0% = like control plants)
Summary of the method: as §3

VERPE [32] = assay: Herbicidal pre-emergence action (Table A11); format: in vivo, Veronica persica; conditions: application rate 320 g/ha; visual grading after ca. 3 weeks
Summary of the method: as §1

ORYZA [33] = assay: Pre-emergence effects on crop plants (Table D3); conditions: crop plant; application rate 80 g/ha; visual grading after ca. 3 weeks
VERPE [34] = assay: Herbicidal post-emergence action, section E (Table E9); format: in vivo, Veronica persica; conditions: application rate 320 g/ha; assessed visually after ca. 3 weeks
Source text: as §2

POAAN [35] = assay: Herbicidal pre-emergence action (Table A7); format: in vivo, Poa annua; conditions: application rate 320 g/ha; visual grading after ca. 3 weeks
Summary of the method: as §1

pre-emergence activity against GLXMA (GLXMA [8]): 10%
pre-emergence activity against BRSNW (BRSNW [23]): 10%
pre-emergence activity against ZEAMX (ZEAMX [28]): 10%
pre-emergence activity against ORYZA (ORYZA [33]): 20%
Compound: O=C1N(Cc2ccccc2F)CCCC12CCCN(Cc1cccc(F)c1F)C2=O (racemic) [I-003]
pre-emergence activity against LOLRI (LOLRI [1]): 100%
post-emergence activity against LOLRI (LOLRI [2]): 80%
post-emergence activity against BRSNW (BRSNW [3]): 20%
pre-emergence activity against ECHCG (ECHCG [4]): 100%
pre-emergence activity against SETVI (SETVI [5]): 100%
post-emergence activity against ZEAMX (ZEAMX [6]): 20%
pre-emergence activity against KCHSC (KCHSC): 90%
post-emergence activity against ECHCG (ECHCG [7]): 90%
post-emergence activity against TRZAS (TRZAS): 0%
pre-emergence activity against VIOTR (VIOTR): 90%
post-emergence activity against STEME (STEME [9]): 100%
pre-emergence activity against STEME (STEME [10]): 90%
post-emergence activity against VERPE (VERPE [11]): 90%
pre-emergence activity against LOLRI (LOLRI [12]): 90%
pre-emergence activity against ECHCG (ECHCG [13]): 100%
pre-emergence activity against MATIN (MATIN [14]): 90%
pre-emergence activity against ALOMY (ALOMY [15]): 90%
post-emergence activity against GLXMA (GLXMA [16]): 20%
pre-emergence activity against ABUTH (ABUTH [17]): 90%
post-emergence activity against ALOMY (ALOMY [18]): 90%
pre-emergence activity against ALOMY (ALOMY [19]): 90%
post-emergence activity against SETVI (SETVI [20]): 80%
post-emergence activity against POAAN (POAAN [21]): 100%
post-emergence activity against MATIN (MATIN [22]): 90%
post-emergence activity against ALOMY (ALOMY [24]): 90%
pre-emergence activity against SETVI (SETVI [25]): 100%
post-emergence activity against SETVI (SETVI [26]): 90%
post-emergence activity against ORYZA (ORYZA [27]): 20%
post-emergence activity against ECHCG (ECHCG [29]): 80%
pre-emergence activity against MATIN (MATIN [30]): 90%
post-emergence activity against ABUTH (ABUTH [31]): 90%
pre-emergence activity against VERPE (VERPE [32]): 90%
post-emergence activity against VERPE (VERPE [34]): 80%
pre-emergence activity against POAAN (POAAN [35]): 100%

Source: patent EP4273147A1, “SUBSTITUTED SPIROLACTAMS, SALTS THEREOF AND THEIR USE AS HERBICIDALLY ACTIVE SUBSTANCES” (Bayer Aktiengesellschaft, priority 2022, dated 2023)
